Columns and labels:
[1] = test system: Sitophilus zeamais; assay: Antifeedant activity against adult of Sitophilus zeamais assessed as relative consumption rate at 100 ppm after 3 days relative to control; type: functional
[2] = test system: Tribolium castaneum; assay: Antifeedant activity against adult of Tribolium castaneum (red flour beetle) assessed as mortality at 300 ppm after 3 days relative to control; type: functional; details: 72 h
[3] = test system: Tribolium castaneum; assay: Antifeedant activity against adult of Tribolium castaneum (red flour beetle) assessed as relative growth rate at 3 ppm after 3 days relative to control; type: functional
[4] = test system: Tribolium castaneum; assay: Antifeedant activity against larvae of Tribolium castaneum (red flour beetle) assessed as relative consumption rate at 100 ppm after 3 days relative to control; type: functional
[5] = test system: Tribolium castaneum; assay: Antifeedant activity against adult of Tribolium castaneum (red flour beetle) assessed as efficiency of conversion of ingested food at 30 ppm after 3 days relative to control; type: functional
[6] = test system: Sitophilus zeamais; assay: Antifeedant activity against adult of Sitophilus zeamais assessed as feeding deterrence index at 300 ppm after 3 days relative to control; type: functional
[7] = test system: Tribolium castaneum; assay: Antifeedant activity against larvae of Tribolium castaneum (red flour beetle) assessed as relative consumption rate at 30 ppm after 3 days relative to control; type: functional
[8] = test system: Sitophilus zeamais; assay: Antifeedant activity against adult of Sitophilus zeamais assessed as feeding deterrence index at 3 ppm after 3 days relative to control; type: functional
[9] = test system: Tribolium castaneum; assay: Antifeedant activity against adult of Tribolium castaneum (red flour beetle) assessed as mortality at 30 ppm after 3 days relative to control; type: functional; details: 72 h
[10] = test system: Tribolium castaneum; assay: Antifeedant activity against adult of Tribolium castaneum (red flour beetle) assessed as relative consumption rate at 100 ppm after 3 days relative to control; type: functional
[11] = test system: Sitophilus zeamais; assay: Antifeedant activity against adult of Sitophilus zeamais assessed as relative growth rate at 30 ppm after 3 days relative to control; type: functional
[12] = test system: Tribolium castaneum; assay: Antifeedant activity against larvae of Tribolium castaneum (red flour beetle) assessed as efficiency of conversion of ingested food at 100 ppm after 3 days relative to control; type: functional, Instar larval stage
[13] = test system: Sitophilus zeamais; assay: Antifeedant activity against adult of Sitophilus zeamais assessed as feeding deterrence index at 30 ppm after 3 days relative to control; type: functional
[14] = test system: Tribolium castaneum; assay: Antifeedant activity against adult of Tribolium castaneum (red flour beetle) assessed as feeding deterrence index at 3 ppm after 3 days relative to control; type: functional
[15] = test system: Sitophilus zeamais; assay: Antifeedant activity against adult of Sitophilus zeamais assessed as mortality at 100 ppm after 3 days relative to control; type: functional; details: 72 h
[16] = test system: Sitophilus zeamais; assay: Antifeedant activity against adult of Sitophilus zeamais assessed as mortality at 10 ppm after 3 days relative to control; type: functional; details: 72 h
[17] = test system: Sitophilus zeamais; assay: Antifeedant activity against adult of Sitophilus zeamais assessed as relative consumption rate at 3 ppm after 3 days relative to control; type: functional
[18] = test system: Sitophilus zeamais; assay: Antifeedant activity against adult of Sitophilus zeamais assessed as relative growth rate at 10 ppm after 3 days relative to control; type: functional
[19] = test system: Sitophilus zeamais; assay: Antifeedant activity against adult of Sitophilus zeamais assessed as efficiency of conversion of ingested food at 30 ppm after 3 days relative to control; type: functional
[20] = test system: Tribolium castaneum; assay: Antifeedant activity against larvae of Tribolium castaneum (red flour beetle) assessed as relative consumption rate at 3 ppm after 3 days relative to control; type: functional
[21] = test system: Tribolium castaneum; assay: Antifeedant activity against adult of Tribolium castaneum (red flour beetle) assessed as mortality at 3 ppm after 3 days relative to control; type: functional; details: 72 h
[22] = test system: Tribolium castaneum; assay: Antifeedant activity against adult of Tribolium castaneum (red flour beetle) assessed as mortality at 100 ppm after 3 days relative to control; type: functional; details: 72 h
[23] = test system: Sitophilus zeamais; assay: Antifeedant activity against adult of Sitophilus zeamais assessed as mortality at 3 ppm after 3 days relative to control; type: functional; details: 72 h
[24] = test system: Tribolium castaneum; assay: Antifeedant activity against larvae of Tribolium castaneum (red flour beetle) assessed as mortality at 300 ppm after 3 days relative to control; type: functional; details: 72 h
[25] = test system: Sitophilus zeamais; assay: Antifeedant activity against adult of Sitophilus zeamais assessed as feeding deterrence index at 10 ppm after 3 days relative to control; type: functional
[26] = test system: Sitophilus zeamais; assay: Antifeedant activity against adult of Sitophilus zeamais assessed as relative consumption rate at 10 ppm after 3 days relative to control; type: functional
[27] = test system: Tribolium castaneum; assay: Antifeedant activity against adult of Tribolium castaneum (red flour beetle) assessed as efficiency of conversion of ingested food at 10 ppm after 3 days relative to control; type: functional
[28] = test system: Sitophilus zeamais; assay: Antifeedant activity against adult of Sitophilus zeamais assessed as relative consumption rate at 300 ppm after 3 days relative to control; type: functional
[29] = test system: Sitophilus zeamais; assay: Antifeedant activity against adult of Sitophilus zeamais assessed as mortality at 300 ppm after 3 days relative to control; type: functional; details: 72 h
[30] = test system: Tribolium castaneum; assay: Antifeedant activity against larvae of Tribolium castaneum (red flour beetle) assessed as efficiency of conversion of ingested food at 3 ppm after 3 days relative to control; type: functional
[31] = test system: Tribolium castaneum; assay: Antifeedant activity against larvae of Tribolium castaneum (red flour beetle) assessed as mortality at 100 ppm after 3 days relative to control; type: functional; details: 72 h
[32] = test system: Tribolium castaneum; assay: Antifeedant activity against adult of Tribolium castaneum (red flour beetle) assessed as relative consumption rate at 30 ppm after 3 days relative to control; type: functional
[33] = test system: Tribolium castaneum; assay: Antifeedant activity against larvae of Tribolium castaneum (red flour beetle) assessed as relative growth rate at 30 ppm after 3 days relative to control; type: functional
[34] = test system: Tribolium castaneum; assay: Antifeedant activity against adult of Tribolium castaneum (red flour beetle) assessed as feeding deterrence index at 100 ppm after 3 days relative to control; type: functional
[35] = test system: Sitophilus zeamais; assay: Antifeedant activity against adult of Sitophilus zeamais assessed as relative growth rate at 100 ppm after 3 days relative to control; type: functional
[36] = test system: Sitophilus zeamais; assay: Antifeedant activity against adult of Sitophilus zeamais assessed as relative growth rate at 300 ppm after 3 days relative to control; type: functional
[37] = test system: Tribolium castaneum; assay: Antifeedant activity against larvae of Tribolium castaneum (red flour beetle) assessed as relative consumption rate at 300 ppm after 3 days relative to control; type: functional
[38] = test system: Tribolium castaneum; assay: Antifeedant activity against adult of Tribolium castaneum (red flour beetle) assessed as mortality at 10 ppm after 3 days relative to control; type: functional; details: 72 h
[39] = test system: Sitophilus zeamais; assay: Antifeedant activity against adult of Sitophilus zeamais assessed as efficiency of conversion of ingested food at 100 ppm after 3 days relative to control; type: functional
[40] = test system: Tribolium castaneum; assay: Antifeedant activity against larvae of Tribolium castaneum (red flour beetle) assessed as relative consumption rate at 10 ppm after 3 days relative to control; type: functional
[41] = test system: Tribolium castaneum; assay: Antifeedant activity against larvae of Tribolium castaneum (red flour beetle) assessed as efficiency of conversion of ingested food at 10 ppm after 3 days relative to control; type: functional, Instar larval stage
[42] = test system: Sitophilus zeamais; assay: Antifeedant activity against adult of Sitophilus zeamais assessed as efficiency of conversion of ingested food at 10 ppm after 3 days relative to control; type: functional
[43] = test system: Tribolium castaneum; assay: Antifeedant activity against adult of Tribolium castaneum (red flour beetle) assessed as efficiency of conversion of ingested food at 300 ppm after 3 days relative to control; type: functional, Instar larval stage
[44] = test system: Sitophilus zeamais; assay: Antifeedant activity against adult of Sitophilus zeamais assessed as feeding deterrence index at 100 ppm after 3 days relative to control; type: functional
[45] = test system: Tribolium castaneum; assay: Antifeedant activity against larvae of Tribolium castaneum (red flour beetle) assessed as feeding deterrence index at 300 ppm after 3 days relative to control; type: functional
[46] = test system: Tribolium castaneum; assay: Antifeedant activity against larvae of Tribolium castaneum (red flour beetle) assessed as feeding deterrence index at 30 ppm after 3 days relative to control; type: functional
[47] = test system: Tribolium castaneum; assay: Antifeedant activity against adult of Tribolium castaneum (red flour beetle) assessed as relative consumption rate at 10 ppm after 3 days relative to control; type: functional
[48] = test system: Tribolium castaneum; assay: Antifeedant activity against adult of Tribolium castaneum (red flour beetle) assessed as feeding deterrence index at 30 ppm after 3 days relative to control; type: functional

## COc1c2ccccc2nc2occc12 [DICTAMNINE]
[1]
  Activity: 52.65 µg/mg/day
[2]
  mortality at 300 ppm: 2%
[3]
  Activity: 29.56 µg/mg/day
[4]
  Activity: 123.74 µg/mg/day
[5]
  Activity: 18.35%
[6]
  FDI: 68.04%
[7]
  Activity: 168.23 µg/mg/day
[8]
  FDI: 9.69%
[9]
  mortality at 30 ppm: 0%
[10]
  Activity: 59.8 µg/mg/day
[11]
  Activity: 12.08 µg/mg/day
[12]
  Activity: 17.43%
[13]
  FDI: 30.99%
[14]
  FDI: 7.31%
[15]
  mortality at 100 ppm: 0%
[16]
  mortality at 10 ppm: 0%
[17]
  Activity: 126.78 µg/mg/day
[18]
  Activity: 14.32 µg/mg/day
[19]
  Activity: 9.78%
[20]
  Activity: 254.2 µg/mg/day
[21]
  mortality at 3 ppm: 0%
[22]
  mortality at 100 ppm: 0%
[23]
  mortality at 3 ppm: 0%
[24]
  mortality at 300 ppm: 4%
[25]
  FDI: 17.87%
[26]
  Activity: 110.95 µg/mg/day
[27]
  Activity: 19.91%
[28]
  Activity: 35.13 µg/mg/day
[29]
  mortality at 300 ppm: 0%
[30]
  Activity: 19.8%
[31]
  mortality at 100 ppm: 0%
[32]
  Activity: 101.27 µg/mg/day
[33]
  Activity: 31.75 µg/mg/day
[34]
  FDI: 59.58%
[35]
  Activity: 9.49 µg/mg/day
[36]
  Activity: 3.21 µg/mg/day
[37]
  Activity: 84.83 µg/mg/day
[38]
  mortality at 10 ppm: 0%
[39]
  Activity: 9.73%
[40]
  Activity: 213.17 µg/mg/day
[41]
  Activity: 18.07%
[42]
  Activity: 10.42%
[43]
  Activity: 13.81%
[44]
  FDI: 51.77%
[45]
  FDI: 82.21%
[46]
  FDI: 38.52%
[47]
  Activity: 129.71 µg/mg/day
[48]
  FDI: 32.38%

## CC1=C2C(=O)O[C@@H](c3ccoc3)[C@]2(C)CCC1 [FRAXINELLONE]
[1]
  Activity: 79.29 µg/mg/day
[2]
  mortality at 300 ppm: 4%
[3]
  Activity: 30.45 µg/mg/day
[4]
  Activity: 127.99 µg/mg/day
[5]
  Activity: 19.1%
[6]
  FDI: 77.77%
[7]
  Activity: 163.61 µg/mg/day
[8]
  FDI: 2.92%
[9]
  mortality at 30 ppm: 0%
[10]
  Activity: 60.43 µg/mg/day
[11]
  Activity: 10.06 µg/mg/day
[12]
  Activity: 13.65%
[13]
  FDI: 30.76%
[14]
  FDI: 8.46%
[15]
  mortality at 100 ppm: 0%
[16]
  mortality at 10 ppm: 0%
[17]
  Activity: 133.85 µg/mg/day
[18]
  Activity: 13.29 µg/mg/day
[19]
  Activity: 9.57%
[20]
  Activity: 233.06 µg/mg/day
[21]
  mortality at 3 ppm: 0%
[22]
  mortality at 100 ppm: 0%
[23]
  mortality at 3 ppm: 0%
[24]
  mortality at 300 ppm: 12%
[25]
  FDI: 15.68%
[26]
  Activity: 120.27 µg/mg/day
[27]
  Activity: 21.98%
[28]
  Activity: 35.29 µg/mg/day
[29]
  mortality at 300 ppm: 4%
[30]
  Activity: 22.62%
[31]
  mortality at 100 ppm: 0%
[32]
  Activity: 83.91 µg/mg/day
[33]
  Activity: 23.22 µg/mg/day
[34]
  FDI: 69.28%
[35]
  Activity: 7.05 µg/mg/day
[36]
  Activity: 4.26 µg/mg/day
[37]
  Activity: 30.12 µg/mg/day
[38]
  mortality at 10 ppm: 0%
[39]
  Activity: 9.66%
[40]
  Activity: 198.13 µg/mg/day
[41]
  Activity: 20.9%
[42]
  Activity: 11.25%
[43]
  Activity: 10.07%
[44]
  FDI: 54.09%
[45]
  FDI: 95.68%
[46]
  FDI: 50.33%
[47]
  Activity: 120.94 µg/mg/day
[48]
  FDI: 40.07%
